In publication PMC7054317, “Mammalian ALKBH1 serves as an N^6-mA demethylase of unpairing DNA” (Cell Research, 2020):

Tests used:
[1] = biological target: T1, ALKBH1_1–359 (mouse) (Mus musculus, UniProt P0CB42); experiment: isothermal titration calorimetry; assay type: binding
T1 construct: gene Alkbh1; C-terminally truncated, residues 1-359, His-tag removed with PreScission protease, E. coli BL21(DE3); residues 20-358 modelled in the crystal
T1 sequence (P0CB42 1-359): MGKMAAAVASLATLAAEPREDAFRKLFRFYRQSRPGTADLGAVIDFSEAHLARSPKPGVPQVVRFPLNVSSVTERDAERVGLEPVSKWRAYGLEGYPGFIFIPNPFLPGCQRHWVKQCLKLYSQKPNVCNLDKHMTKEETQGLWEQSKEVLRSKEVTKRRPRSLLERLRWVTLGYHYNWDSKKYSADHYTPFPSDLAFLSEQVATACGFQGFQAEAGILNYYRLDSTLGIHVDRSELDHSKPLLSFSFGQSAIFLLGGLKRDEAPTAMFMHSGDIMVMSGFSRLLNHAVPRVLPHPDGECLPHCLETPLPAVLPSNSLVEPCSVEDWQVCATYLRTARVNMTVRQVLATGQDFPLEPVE

[2] = biological target: T2, ALKBH1 in full length (mouse) (Mus musculus, UniProt P0CB42); experiment: isothermal titration calorimetry; assay type: binding
T2 construct: full length, residues 1-389, N-terminal His-tag retained, E. coli BL21(DE3), modified pRSFDuet-1
T2 sequence (P0CB42 1-389): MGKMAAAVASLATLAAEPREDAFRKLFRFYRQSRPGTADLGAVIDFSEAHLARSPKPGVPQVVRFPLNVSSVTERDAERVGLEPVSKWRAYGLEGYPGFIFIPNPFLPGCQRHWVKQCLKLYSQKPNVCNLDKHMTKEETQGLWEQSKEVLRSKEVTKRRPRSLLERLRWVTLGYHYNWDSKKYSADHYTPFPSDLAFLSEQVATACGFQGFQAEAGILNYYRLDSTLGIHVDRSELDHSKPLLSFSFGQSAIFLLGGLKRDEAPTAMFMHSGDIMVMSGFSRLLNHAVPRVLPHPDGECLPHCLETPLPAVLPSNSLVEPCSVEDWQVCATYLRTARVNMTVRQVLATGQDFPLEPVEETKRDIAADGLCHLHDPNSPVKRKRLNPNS

Kd [1]: 2500 nM
Kd [2]: 1800 nM
SMILES: O=C(O)CNC(=O)C(=O)O [NOG]
